From US9278914B2, “SARMs and method of use thereof” (UNIVERSITY OF TENNESSEE RESEARCH FOUNDATION, priority 2004, dated 2016)

Test system: castrated male Sprague-Dawley rats
Test: Anabolic and androgenic activity of SARM panel in castrated male rats, sc 1 mg/d for 14 d
Format: in vivo, rat
Conditions: 1 mg/d sc 14 d
Method: The in vivo pharmacological activity of each synthetic AR ligand (listed in Table 4, below) was examined in five male Sprague-Dawley rats weighing approximately 200 g. Animals were castrated via a scrotal incision under anesthesia 24 h before drug treatments and received daily sc injections of the compound of interest at a dose rate of 1 mg/d for 14 d. All compounds of interest were freshly dissolved in vehicle containing dimethylsulfoxide (5%, vol/vol) in polyethylene glycol 300 before dose administration. An additional two groups of animals with or without castration received vehicle only and served as castrated or intact control groups, respectively. Animals were killed at the end of the treatment. Plasma samples were collected and stored at −80° C. for future use. The ventral prostate, seminal vesicles, and levator ani muscle were removed, cleared of extraneous tissue, and weighed. All organ weights were normalized to body weight and compared. The weights of prostate and seminal vesicles were used to evaluate androgenic activity, whereas the levator ani muscle weight was used as a measure of anabolic activity. […] The results are graphically depicted in FIGS. 3 and 4.

Row | SMILES | Levator ani weight versus intact control | Levator ani agonism | Ventral prostate weight
1 | C[C@](O)(COc1ccc(F)c(F)c1)C(=O)Nc1ccc([N+](=O)[O-])c(C(F)(F)F)c1 [C-3] | same as or in excess of intact control | – | –
2 | C[C@](O)(COc1ccc(F)c(Cl)c1)C(=O)Nc1ccc([N+](=O)[O-])c(C(F)(F)F)c1 [C-4] | – | > 75 % of intact control | < 25 % of intact control
3 | C[C@](O)(COc1ccc(Cl)c(F)c1)C(=O)Nc1ccc([N+](=O)[O-])c(C(F)(F)F)c1 [C-6] | same as or in excess of intact control | – | –
4 | C[C@](O)(COc1ccc(Cl)cc1F)C(=O)Nc1ccc([N+](=O)[O-])c(C(F)(F)F)c1 [C-8] | same as or in excess of intact control | – | –
5 | C[C@](O)(COc1ccc(Cl)c(Cl)c1)C(=O)Nc1ccc([N+](=O)[O-])c(C(F)(F)F)c1 [C-10] | same as or in excess of intact control | – | –
6 | C[C@](O)(COc1ccc([N+](=O)[O-])c(F)c1)C(=O)Nc1ccc([N+](=O)[O-])c(C(F)(F)F)c1 [C-11] | same as or in excess of intact control | – | –
7 | C[C@](O)(COc1cc(F)c(F)cc1F)C(=O)Nc1ccc([N+](=O)[O-])c(C(F)(F)F)c1 [C-18] | same as or in excess of intact control | – | –
8 | C[C@](O)(COc1cc(Cl)c(Cl)cc1Cl)C(=O)Nc1ccc([N+](=O)[O-])c(C(F)(F)F)c1 [C-22] | – | > 75 % of intact control | < 25 % of intact control
9 | C[C@](O)(COc1c(F)c(F)c(F)c(F)c1F)C(=O)Nc1ccc([N+](=O)[O-])c(C(F)(F)F)c1 [C-23] | – | > 75 % of intact control | < 25 % of intact control
10 | C[C@](O)(COc1ccc(F)cc1)C(=O)Nc1ccc([N+](=O)[O-])c(C(F)(F)F)c1 [S-1] | – | > 75 % of intact control | < 25 % of intact control
